Data on five molecules can be found in patent EP0199291A1 (priority 1985, dated 1986).

The structures appear in SMILES notation. Like-named read-outs stand apart in the source and are kept apart here.

In one data set the test system is TNP-C3H. Conditions: for cytotoxische Aktivität (% 51Cr-Freisetzung): Stimulans und Target TNP-C3H, 1 x 10^-2 mol/l, 5 days.
The next data set relates to C57BL/6. The following applies: Stimulans und Target C57BL/6, 1 x 10^-2 mol/l, 5 days.
Data set [1] relates to PMA-aktivierte EL-4 Thymomzellen. Conditions: same concentrations as in Fig. 5.
Protocol: (§1) Die IL 2 Titer wurden mit der IL 2 abhängigen W-2 T-Zelllinie in bekannter Weise bestimmt.
Die Überstände werden aus einer IL-2 produzierenden EL-4 Thymom-Sublinie nach Induktion mit Phorbolmyristinacetat (PMA) in bekannter Weise erhalten. Es wurden 10^6 EL-4 Zellen pro ml zusammen mit 10 ng/ml PMA (SIGMA) 48 h inkubiert. Die Überstände wurden gesammelt und bei -20°C gefroren gelagert.
(§2) Die resultierenden Überstände wurden dann durch Zentrifugation isoliert und auf Interleukin-2 und Interferon- Aktivität getestet, wie im Methodenteil beschrieben.
Data set [2] deals with IL 2 abhängige W-2 T-Zelllinie. The following applies: control solutions with increasing amounts in culture medium.
Protocol: as §1
Ansteigende Konzentrationen von Ornithin wurden Kulturen von con-A-aktivierten Konzentrationen von Ornithin C3H Milzzellen (10^7 Zellen + 5 µg con-A pro ml) zugesetzt. Die erhaltenen Überstände wurden 24 h später isoliert und auf Interleukin-2 und Interferonaktivität getestet. […] C3H Milzzellkulturen mit l ug/ml con-A sowie allogene "Genischte-Lymphozyten-Kulturen" mit 10^7 nicht-bestrahltenC3H Milzzellen' plus 10^7 nicht- bestrahltenC57BL/6 Milzzellen wurden eben- falls mit steigenden Konzentrationen von Ornithin angesetzt.
For data set [3], the system named is con-A-aktivierte C3H Milzzellen. Conditions: 9 x 10^-3 mol/l; Con A 5 µg/ml; 24 h (Fig. 5).
Protocol: as §1, §2
Ansteigende Konzentrationen von Ornithin wurden Kulturen von con-A-aktivierten Konzentrationen von Ornithin C3H Milzzellen (10^7 Zellen + 5 µg con-A pro ml) zugesetzt. Die erhaltenen Überstände wurden 24 h später isoliert und auf Interleukin-2 und Interferonaktivität getestet.
The mark [4] stands for this setting: Angreifer:Targetzellen 1:1, control without additive 4,8.
The mark [5] stands for this setting: Angreifer:Targetzellen 5:1, control without additive 17,7.
The mark [6] stands for this setting: Angreifer:Targetzellen 25:1, control without additive 33,5.
Where [7] appears, read: Angreifer:Targetzellen 1:1, control without additive 16,3.
Setting [8] is: Angreifer:Targetzellen 5:1, control without additive 32,0.
Setting [9] is: Angreifer:Targetzellen 25:1, control without additive 54,9.
Setting [10] is: summary statement, see Tabelle I.

Protocol for C57BL/6: (§3) 20 Millionen Responderzellen (üblicherweise C3H Milzzellen)wurden mit 1×10^6 bestrahlten (1500 rad) allogenen oder trinitrophenylierten syngenen Stimulatorzellen in einem Gesamtvolumen von 4,5 ml Kulturmedium (RPMI 1640, GIBCO Medium supplementiert mit 10mM L-Gutamin (GIBCO), Streptomycin/Penicillin (GIBCO), Streptomycin/ Penicillin (GIBCO; 100 units/ml), 0,5 % HEPES (GIBCO), 10% fötalem Kälberserum (GIBCO) und 3×10^-5 Mol/l 2-Mercaptoäthanol) 5 Tage bei 37°C in 5% CO2 incubiert. Responder-und Stimulatorzellen waren Milzzellen.
(§4) Die Kulturen wurden nach 5 Tagen auf cytotoxische Aktivität gegen Con A-aktivierte allogene oder trinitrophenylierte syngene Milzlynphoblasten in einem 4-Stunden 51Cr-Release assay in bekanntem Weise getestet.
(§5) Der Effekt in vitro (mittlere und rechte Zeichnung der Fig. 1) wurde wie folgt bestimmt: • C3H Milzzellen (2 x 10^7) wurden mit 1 x 10^6 bestrahlten und Trinitrophenylen-behandelten C3H Milzzellen (Mitte) oder 1 x 10^6 bestrahlte C57BL/6 Milzzellen (rechts) und mit den angegebenen Endkonzentrationen von Ornithin in 4,5 ml Kulturen 5 Tage inkubiert. Die cytotoxische Aktivität gegen die entsprechenden Targetzellen wurde nach 5 Tagen getestet.
(§6) C3H Milzzellen (2 x 10^7) wurden mit 1 x 10^6 bestrahlten und Trinitrophenylen-behandelten C3H Milzzellen (links) oder 1 x 10^6 bestrahlten C57BL/6 Milzzellen (rechts) in 4,5 ml Kulturen 5 Tage inkubiert. […] Die Abszisse zeigt die Endkonzentration von Ornithin in der Kultur. Die cytotoxische Aktivität gegen die entsprechenden Targetze1len wurde nach 5 Tagen bei Angreifer: Ziel-Zellen-Verhältnissen von 25:1, 5:1 und 1:1 untersucht. Figur 3 zeigt die relative cytotoxische Aktivität beim Angreifer: Ziel-Zellen-Verhältnis 25:1. (Die Kontrollantwort ohne Ornithin zeigte 54% (links) bzw. 50% (rechts) ^51Cr-release).
(§7) Die Ergebnisse geben die cytotoxische Aktivität (% ^51Cr-Freisetzung) gegen homologe Targetzellen nach 5 Tagen bei Angreifer:Targetzel len-Verältnissen von 25:1, 5:1 und 1:1 an.
Protocol for TNP-C3H: as §3, §4, §5, §6, §7

For `NCCCCN` [Putrescin], the “Hemmwirkung auf die Aktivierung cytotoxischer T-Lymphozyten” value with TNP-C3H was “nicht zu beobachten”.

With `NCCCC[C@H](N)C(=O)O` [L-Lysin], the “cytotoxische Aktivität (% 51Cr-Freisetzung)” value in the data set with C57BL/6 (setting [4]) is recorded as 9,0%; with C57BL/6 (setting [5]), 19,1%; with C57BL/6 (setting [6]) it was 41,7%; in the data set with TNP-C3H (setting [7]), 21,5%; with TNP-C3H (setting [8]), 39,9%; in the data set on TNP-C3H (setting [9]) it was 60,7%. Moreover, the “Hemmwirkung auf die Aktivierung cytotoxischer T-Lymphozyten” value in the data set on TNP-C3H (setting [10]) is reported as “nicht zu beobachten”.

Regarding `NCCC[C@H](N)C(=O)O` [L-Ornithin], the “Interleukin-2-Produktion von PMA-aktivierten EL-4 Thymomzellen” value in data set [1] is recorded as “nicht supprimiert”. Moreover, the “Interleukin-2-Aktivität (of the substance itself)” value in data set [2] was “keine Interleukin-2 oder Interferon-Aktivität”. The “Effekt auf die Produktion von IL-2” value in data set [3] was “keinen wesentlichen Effekt”.

For `C[C@H](N)C(=O)O` [L-Alanin], the “Hemmwirkung auf die Aktivierung cytotoxischer T-Lymphozyten” value with TNP-C3H is “nicht zu beobachten”.

Consider `N[C@@H](Cc1c[nH]cn1)C(=O)O` [L-Hystidin, L-Histidin], for which the “cytotoxische Aktivität (% 51Cr-Freisetzung)” value with C57BL/6 (setting [4]) is 5,1%; in the data set with C57BL/6 (setting [5]), 11,4%; with C57BL/6 (setting [6]), 24,5%; in the data set on TNP-C3H (setting [7]) it was 11,1%; in the data set on TNP-C3H (setting [8]), 27,8%; in the data set on TNP-C3H (setting [9]) it was 48,5%. Further, the “Hemmwirkung auf die Aktivierung cytotoxischer T-Lymphozyten” value in the data set with TNP-C3H (setting [10]) is “nicht zu beobachten”.
